Publication PMC6920776, “Exploring Biological Activity of 4-Oxo-4H-furo[2,3-h]chromene Derivatives as Potential Multi-Target-Directed Ligands Inhibiting Cholinesterases, β-Secretase, Cyclooxygenase-2, and Lipoxygenase-5/15” (Biomolecules, 2019)
Several values for one entry are separate records, joined by “and”; a condition that tells them apart may be missing. Equal values may be shown once. Where a name gives a salt, the structure may show the parent alone. Read-outs that look alike come from different tables or passages of the source.

How the values were obtained:
AChE [1] = target: T1, AChE (Homo sapiens, UniProt P22303); assay: biochemical; conditions: for Selectivity index (SI): SI = IC50 (AChE)/IC50 (BChE); for IC50: recombinant human AChE, Ellman's method, triplicate
T1 sequence (P22303 32-614): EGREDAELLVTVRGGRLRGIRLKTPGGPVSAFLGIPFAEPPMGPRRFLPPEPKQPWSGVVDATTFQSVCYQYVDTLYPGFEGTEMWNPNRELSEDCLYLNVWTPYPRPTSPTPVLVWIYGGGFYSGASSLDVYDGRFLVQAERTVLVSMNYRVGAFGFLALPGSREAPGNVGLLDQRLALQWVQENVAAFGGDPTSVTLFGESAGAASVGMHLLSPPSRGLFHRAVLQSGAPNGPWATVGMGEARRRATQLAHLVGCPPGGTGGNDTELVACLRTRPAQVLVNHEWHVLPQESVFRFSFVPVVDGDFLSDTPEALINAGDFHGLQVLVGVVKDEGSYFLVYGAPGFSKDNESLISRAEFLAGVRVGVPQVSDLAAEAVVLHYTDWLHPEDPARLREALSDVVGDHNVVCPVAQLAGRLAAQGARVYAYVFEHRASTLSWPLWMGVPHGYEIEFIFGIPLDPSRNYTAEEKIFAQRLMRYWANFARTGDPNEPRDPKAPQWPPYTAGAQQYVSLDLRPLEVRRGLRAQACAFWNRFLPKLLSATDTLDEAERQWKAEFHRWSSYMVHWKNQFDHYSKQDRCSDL

BChE [2] = target: T2, BChE (Homo sapiens, UniProt P06276); assay: biochemical; conditions: Ellman's method, triplicate
T2 construct: purchased Cloud-Clone Corp., through BIOCOM Africa (Pty) Ltd RPC348Hu0 2_100
T2 sequence (P06276 29-602): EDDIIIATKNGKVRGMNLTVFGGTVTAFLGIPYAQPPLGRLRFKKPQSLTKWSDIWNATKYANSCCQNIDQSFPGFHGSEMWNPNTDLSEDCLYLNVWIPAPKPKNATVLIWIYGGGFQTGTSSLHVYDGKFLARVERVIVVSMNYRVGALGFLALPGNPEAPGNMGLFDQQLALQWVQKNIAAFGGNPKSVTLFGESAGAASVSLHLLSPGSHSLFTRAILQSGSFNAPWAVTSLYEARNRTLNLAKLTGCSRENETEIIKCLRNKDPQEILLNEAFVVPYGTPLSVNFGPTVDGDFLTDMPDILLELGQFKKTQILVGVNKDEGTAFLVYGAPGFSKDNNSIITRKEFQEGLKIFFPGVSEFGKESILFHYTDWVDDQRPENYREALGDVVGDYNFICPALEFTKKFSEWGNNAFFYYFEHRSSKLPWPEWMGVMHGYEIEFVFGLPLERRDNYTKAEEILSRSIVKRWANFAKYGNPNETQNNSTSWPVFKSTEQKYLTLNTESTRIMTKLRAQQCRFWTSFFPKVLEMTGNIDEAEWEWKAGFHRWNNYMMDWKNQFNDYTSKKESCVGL
Procedure: Their anti-AChE and BChE activities were determined by spectrophotometric Ellman’s method [42]. […] The mixtures were incubated for 15 min at RT. The reaction was initiated by adding 10 µL of a mixture solution of 5 mM 5,50-dithio-bis-nitrobenzoic acid (DTNB) in 50 mM tris buffer (pH 7.7) and 10 µL acetylthiocholine (ASCh) (5 mM) in 50 mM tris buffer, pH 7.7. The hydrolysis of ASCh was determined by monitoring the formation of the yellow 5-thio-2-nitrobenzoate anion resulting from reaction of DTNB with thiocholines (SCh).
The IC50 values were determined graphically from inhibition curves (inhibitor concentration and absorbance) using the graph pad prism.

BACE-1 [3] = target: T3, BACE-1 (Homo sapiens, UniProt P56817); assay: β-Secretase FRET inhibition assay; format: biochemical; conditions: pH 4.5, 60 min at 25 °C, triplicate
T3 construct: purchased Pan Vera; host or cells: baculovirus expression
T3 sequence (P56817 46-501): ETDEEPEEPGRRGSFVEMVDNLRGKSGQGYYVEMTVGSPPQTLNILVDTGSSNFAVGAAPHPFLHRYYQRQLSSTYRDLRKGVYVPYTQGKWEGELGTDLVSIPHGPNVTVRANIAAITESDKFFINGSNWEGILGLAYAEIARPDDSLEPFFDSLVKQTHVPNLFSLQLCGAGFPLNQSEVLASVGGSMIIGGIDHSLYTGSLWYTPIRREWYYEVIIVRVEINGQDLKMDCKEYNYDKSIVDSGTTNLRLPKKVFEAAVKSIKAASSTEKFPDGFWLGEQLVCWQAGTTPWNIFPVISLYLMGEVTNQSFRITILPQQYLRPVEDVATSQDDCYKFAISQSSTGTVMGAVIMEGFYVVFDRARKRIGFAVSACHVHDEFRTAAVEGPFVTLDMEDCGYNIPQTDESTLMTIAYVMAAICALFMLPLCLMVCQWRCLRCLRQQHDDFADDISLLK

COX-2 = target: T4, COX-2 (Homo sapiens, UniProt P35354); assay: biochemical; conditions: duplicate runs
T4 construct: purchased Bio Vision K547
T4 sequence (P35354 18-604): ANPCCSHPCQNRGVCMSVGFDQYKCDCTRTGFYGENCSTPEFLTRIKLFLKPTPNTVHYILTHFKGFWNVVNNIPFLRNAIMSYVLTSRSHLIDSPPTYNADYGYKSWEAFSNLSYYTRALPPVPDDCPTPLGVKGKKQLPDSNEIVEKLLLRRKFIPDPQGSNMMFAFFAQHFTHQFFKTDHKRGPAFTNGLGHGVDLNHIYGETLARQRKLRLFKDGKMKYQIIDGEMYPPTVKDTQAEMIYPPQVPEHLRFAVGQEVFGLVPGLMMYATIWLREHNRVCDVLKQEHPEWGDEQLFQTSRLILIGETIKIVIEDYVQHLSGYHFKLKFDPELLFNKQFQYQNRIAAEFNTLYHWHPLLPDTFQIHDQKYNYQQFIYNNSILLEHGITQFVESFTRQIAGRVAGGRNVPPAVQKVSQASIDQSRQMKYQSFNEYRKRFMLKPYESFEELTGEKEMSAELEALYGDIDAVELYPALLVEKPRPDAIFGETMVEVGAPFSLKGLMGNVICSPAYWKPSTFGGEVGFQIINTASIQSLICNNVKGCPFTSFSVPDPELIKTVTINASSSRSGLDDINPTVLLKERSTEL
Procedure: The reagents for the COX-2 assay were prepared according to the standard protocol enclosed in the Cyclooxygenase inhibitor screening kit (Item No. K547; Bio Vision, Milpitas Blvd, Milpitas, CA USA). […] The assay mixtures in a 96-well plate were distributed as follows: two wells taken as enzyme control (10µL assay buffer) and two wells as inhibitor control (2 µL of celecoxib and 8 µL of COX assay buffer). Ten microliters of the test compounds concentrations and those of celecoxib were added to the remaining wells with the aid of a multi-channel pipette. Then, 80 µL of the reaction mix (a mixture of 76 µL COX assay buffer, 1 µL of COX probe, 2 µL of diluted COX cofactor and 1 µL of COX-2 enzyme) were added to the reaction mixture. The assay mixtures in the 96-well plate were incubated for 5 min. The reactions were initiated by the addition of 10 µL of diluted arachidonic acid and sodium hydroxide solution (10 µL of arachidonic acid and 90 µL of sodium hydroxide) to each well. The absorbance was measured using a Varioskan flash microplate spectrophotometer, and the IC50 was calculated with the aid of a graph pad prism

[4] = target: T5, soybean lipoxygenases-15 (LOX-15) (Glycine max, UniProt P08170); assay: Soybean LOX-15 inhibitory assay; format: biochemical
T5 construct: purchased Cayman Chemicals 760700
T5 sequence (P08170 1-839): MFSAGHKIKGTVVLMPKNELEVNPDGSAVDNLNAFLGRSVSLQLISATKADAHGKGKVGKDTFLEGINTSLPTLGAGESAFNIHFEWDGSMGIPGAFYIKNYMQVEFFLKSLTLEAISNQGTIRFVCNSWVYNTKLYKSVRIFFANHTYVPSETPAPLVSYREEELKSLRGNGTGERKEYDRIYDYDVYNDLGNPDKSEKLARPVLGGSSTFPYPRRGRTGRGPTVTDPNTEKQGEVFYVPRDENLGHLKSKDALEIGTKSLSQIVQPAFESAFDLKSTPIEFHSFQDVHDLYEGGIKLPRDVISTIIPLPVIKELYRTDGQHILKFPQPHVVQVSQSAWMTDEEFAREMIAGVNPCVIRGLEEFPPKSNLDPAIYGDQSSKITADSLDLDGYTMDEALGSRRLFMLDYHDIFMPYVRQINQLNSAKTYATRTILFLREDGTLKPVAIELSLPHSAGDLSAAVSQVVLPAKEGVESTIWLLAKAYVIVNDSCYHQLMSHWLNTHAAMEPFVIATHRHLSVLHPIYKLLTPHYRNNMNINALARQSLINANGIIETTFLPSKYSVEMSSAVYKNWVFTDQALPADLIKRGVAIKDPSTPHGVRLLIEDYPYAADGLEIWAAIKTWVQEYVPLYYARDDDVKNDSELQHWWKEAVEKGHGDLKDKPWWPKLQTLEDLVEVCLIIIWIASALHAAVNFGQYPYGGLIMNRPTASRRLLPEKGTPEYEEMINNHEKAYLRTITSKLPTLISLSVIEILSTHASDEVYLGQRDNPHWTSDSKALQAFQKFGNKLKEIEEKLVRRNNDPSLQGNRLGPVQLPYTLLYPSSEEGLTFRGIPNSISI
Procedure: Stock solutions of the test samples prepared in DMSO were further diluted with 50 mM Tris buffer of pH 7.7 to obtain concentrations of 0.01, 0.1, 1, 10, and 100 µM. The cells of a 96-well plate where arranged as follows: two wells taken as blanks (100 µL 50mM Tris buffer pH, 7.7), two wells taken as enzyme controls (90 µL of 15-LO Standard and 10 µL of DMSO), and two as 100% initial activity wells (90 µL lipoxygenase enzyme solution and 10 µL tris buffer). Then, 90 µL of lipoxygenase enzyme solution and 10 µL of each test compound (and reference standards) from the above concentrations were added to the other wells of a 96-well plate, and the plate was incubated for 5 min at room temperature. The reaction was initiated by addition of 10 µL of the arachidonic acid to each well containing the assay mixtures. The 96-well plate was shaken for 5 min on a shaker, and 100 µL of the chromogen (solution of equal volume developing reagent 1 and 2) was added to each well to initiate the reaction. The plate was again shaken for 5 min and the absorbance read at 490 nm in a Varioskan flash microplate spectrophotometer reader. The inhibitory concentration was expressed as a percentage using the formula below. Inhibitory concentration = AInitial activity −(ASample − ABlank sample)/AInitial activity×100 where ASample is the absorbance of the reaction mixture of the test sample, ABlank sample is the absorbance of the reaction mixture containing all reagents except enzyme, and AInitial activity is the absorbance of 100% initial activity.

human LOX-5 = target: T6, human LOX-5 (Homo sapiens, UniProt P09917); assay: Human LOX-5 inhibitory assay; format: biochemical
T6 construct: purchased BioVision K980
T6 sequence (P09917 1-674): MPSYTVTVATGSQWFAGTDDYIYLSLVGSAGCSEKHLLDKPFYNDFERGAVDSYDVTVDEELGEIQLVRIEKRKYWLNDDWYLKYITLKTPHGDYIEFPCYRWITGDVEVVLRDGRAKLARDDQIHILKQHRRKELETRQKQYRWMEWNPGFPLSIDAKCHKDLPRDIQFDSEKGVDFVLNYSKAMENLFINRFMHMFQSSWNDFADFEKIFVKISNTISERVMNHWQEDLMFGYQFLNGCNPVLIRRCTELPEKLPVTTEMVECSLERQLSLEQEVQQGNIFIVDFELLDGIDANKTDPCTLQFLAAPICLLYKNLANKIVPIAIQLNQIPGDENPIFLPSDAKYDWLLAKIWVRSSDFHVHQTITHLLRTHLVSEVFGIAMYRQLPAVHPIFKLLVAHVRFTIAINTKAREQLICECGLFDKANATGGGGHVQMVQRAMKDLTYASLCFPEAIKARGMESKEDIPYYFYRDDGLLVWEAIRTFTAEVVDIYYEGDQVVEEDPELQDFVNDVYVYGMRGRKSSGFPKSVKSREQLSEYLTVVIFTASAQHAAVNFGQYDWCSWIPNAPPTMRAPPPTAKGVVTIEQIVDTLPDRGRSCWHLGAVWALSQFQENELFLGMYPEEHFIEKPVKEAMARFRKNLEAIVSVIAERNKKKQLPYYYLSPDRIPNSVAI
Procedure: The reagents were prepared according to the Lipoxygenase inhibitor screening kit (Item No. K980; BioVision, Milpitas Blvd, Milpitas, CA, USA) standard protocol. Stock solutions of the test compounds were prepared in DMSO, and further diluted with 50 mM Tris HCl buffer (pH 7.7) to obtain final concentrations of 0.01, 0.1, 1, 5, and 10 µM. […] The wells of a 96-well plate were arranged as follows: two wells were taken as blanks (40 µL of assay buffer) and two as enzyme controls (2 µL of LOX-5 Standard and 38 µL of tris buffer). Two microliters (2 µL) of the test compounds (various concentration of test compounds and reference standards, respectively) followed by 38 µL of LOX assay buffer were added to the other wells of the 96-well plate in duplicate. Then, 40 µL of the reaction mixture (prepared by mixing thoroughly 36 µL of LOX assay buffer, 2 µL of LOX probe and 2 µL of LOX-5 enzyme) was added to each well containing the test mixtures, and the wells were incubated for 10 min at RT. The DMSO concentration in each reaction well was 1% to prevent enzyme structural deformation and, therefore, reduced activity. […] The percentage inhibition (%) was calculated using the equation below.
% Inhibition = Control − Test/Control×100

[5] = DPPH radical scavenging assay; conditions: 45 min in the dark, triplicate
Procedure: The DPPH radical scavenging activity of compounds 2a–i and 3a–i was evaluated following the literature method by Zhu et al.. The compounds were evaluated against ascorbic acid (Sigma Aldrich, Saint Louis, Missouri, USA) as a positive control. Various concentrations of the test compounds and control (0 µM to 40 µM) in DMSO were mixed with a solution of DPPH (0.20 mM) in methanol. The mixtures were incubated in the dark for 45 min and then the absorbances were recorded at 512 nm using Varioskan flash microplate spectrophotometer reader. All tests and analyses were run in triplicate and averaged. The inhibition was calculated in terms of percentage using the formula below: DPPH radical scavenged (%)=AbC − AbS/AbC×100 where AbC is absorbance of control and AbS the absorbance of the test sample.

AChE [6] = target: T1, AChE; format: biochemical
Text: (§1) The Lineweaver–Burk plots (plots of the inverse of velocity against the inverse of the substrate concentration) were used to ascertain the mode of inhibition of these compounds. The Dixon plots of the inverse of velocity (1/v) against the concentration of the inhibitor at each concentration of substrate were used to determine their inhibitor constants (Ki).

BChE [7] = target: T2, BChE; format: biochemical
Text: as §1

BACE-1 [8] = target: T3, BACE-1; assay: Kinetic study against β-secretase (Lineweaver-Burk and Dixon plots); format: biochemical
Text: The Lineweaver–Burk plot (plot of the inverse of velocity (1/v) against the inverse of the substrate concentration (1/[S])) was used to ascertain the mode of inhibition of this compound.

[9] = test system: breast cancer MCF-7 cell line; assay: MTT antigrowth assay, MCF-7; format: cell-based; conditions: preliminary results, read-out: IC50 antigrowth effect, MCF-7
Procedure: (§2) Briefly, the Hek293-T cells and MCF-7 cancer cells were seeded in a 96-well plate at a density of 20 × 10^3 cells per well, and then incubated at 37 °C in 5% CO2 to allow cell attachment. The medium was removed and replaced with fresh medium containing various concentrations of the test sample and doxorubicin hydrochloride (10, 25, 50, 100, and 200 μM) and incubated for 24 h. After treatment for 24 h, 10 μL MTT (5 mg/mL) was added to each well and the plate was further incubated for 4 h. The supernatant was removed, and 100 μL of DMSO was added to each well to dissolve the resulting formazan crystals. The absorbance was read at 570 nm using the Varioskan flash microplate spectrophotometer reader and the cell viability. The percentages of cell viability were used to determine the IC50 values.

Hek293-T cells = assay: MTT cytotoxicity assay, Hek293-T; conditions: up to a concentration of 50 μM
Procedure: as §2

[10] = Lineweaver-Burk and Dixon plots

Molecule	Selectivity index (SI) (AChE [1])	IC50 (AChE [1])	IC50 (BChE [2])	IC50 (COX-2)	IC50 [5]	IC50 [4]	also measured
2-(4-Chlorophenyl)-6-[(4-trifluoromethylphenyl)hydrazonomethyl]furo[3,2-h]chromen-5-one [Compound 3e]	0.5	5.4 ± 0.02 µM	9.9 ± 0.04 µM	10.4 ± 0.03 µM	25.9 ± 0.05 µM	–	IC50 (BACE-1 [3]): 13.6 ± 0.02 µM; IC50 ([4]; soybean LOX-15, duplicate runs, read-out: IC50 LOX-15): 14.9 ± 0.04 µM; IC50 (human LOX-5; human LOX-5, duplicate, read-out: IC50 LOX-5): 28.5 ± 0.02 µM; Ki (AChE [6]; Dixon plot): 1.6 ± 0.01 µM; Mode of inhibition, AChE (AChE [6]; [10]): non-competitive mode of inhibition; Ki (BChE [7]; Dixon plot): 1.92 ± 0.01 µM; Mode of inhibition, BChE (BChE [7]; [10]): non-competitive mode of inhibition; Ki (BACE-1 [8]; Dixon plot, substrate 150, 300 and 450 nM): 2.5 ± 0.01 µM; Mode of inhibition, BACE-1 (BACE-1 [8]; [10]): mixed mode of inhibition; IC50 ([9]; 24 h treatment): 6.82 ± 0.02 µM; Toxicity in Hek293-T cells (Hek293-T cells): non-toxic
O=C1O[C@H]([C@@H](O)CO)C(O)=C1O [Ascorbic acid, ascorbic acid, reference compound]	–	–	–	–	4.6 ± 0.01 µM	–	–
O=Cc1coc2c(ccc3oc(-c4ccccc4)cc32)c1=O [Compound 2a, 4-Oxo-8-phenyl-4H-furo[2,3-h]chromene-3-carbaldehyde]	0.8	25.1 ± 0.04 µM	34.2 ± 0.02 µM	25.6 ± 0.01 µM	10.1 ± 0.03 µM	12.5 ± 0.03 µM	–
O=Cc1coc2c(ccc3oc(-c4cccc(F)c4)cc32)c1=O [Compound 2b, 8-(3-Fluorophenyl)-4-oxo-4H-furo[2,3-h]chromene-3-carbaldehyde]	1.7	15.2 ± 0.03 µM	9.2 ± 0.01 µM	43.7 ± 0.01 µM	27.6 ± 0.02 µM	18.6 ± 0.01 µM	–
O=Cc1coc2c(ccc3oc(-c4ccc(F)cc4)cc32)c1=O [Compound 2c, 8-(4-Fluorophenyl)-4-oxo-4H-furo[2,3-h]chromene-3-carbaldehyde]	1.1	30.4 ± 0.01 µM	28.3 ± 0.03 µM	15.8 ± 0.03 µM	7.5 ± 0.02 µM	14.3 ± 0.01 µM	–
O=Cc1coc2c(ccc3oc(-c4cccc(Cl)c4)cc32)c1=O [Compound 2d, 8-(3-Chlorophenyl)-4-oxo-4H-furo[2,3-h]chromene-3-carbaldehyde]	1.5	19.2 µM and 19.8 µM	13.2 ± 0.05 µM	23.1 ± 0.02 µM	29.1 ± 0.01 µM	22.9 ± 0.02 µM	–
O=Cc1coc2c(ccc3oc(-c4ccc(Cl)cc4)cc32)c1=O [Compound 2e, 8-(4-Chlorophenyl)-4-oxo-4H-furo[2,3-h]chromene-3-carbaldehyde]	0.8	27.1 ± 0.04 µM	32.6 ± 0.02 µM	18.6 ± 0.01 µM	19.9 ± 0.01 µM	15.2 ± 0.04 µM	–
COc1ccc(-c2cc3c(ccc4c(=O)c(C=O)coc43)o2)cc1 [Compound 2f, 8-(4-Methoxyphenyl)-4-oxo-4H-furo[2,3-h]chromene-3-carbaldehyde]	1.6	34.2 ± 0.02 µM	21.8 ± 0.02 µM	13.7 ± 0.04 µM	14.3 ± 0.02 µM	8.2 ± 0.03 µM	IC50 (human LOX-5): 17.3 ± 0.01 µM
COc1cc(OC)cc(-c2cc3c(ccc4c(=O)c(C=O)coc43)o2)c1 [Compound 2g, 8-(3,5-Dimethoxyphenyl)-4-oxo-4H-furo[2,3-h]chromene-3-carbaldehyde]	1.1	25.3 ± 0.02 µM	23.2 ± 0.04 µM	23.5 ± 0.03 µM	8.3 ± 0.02 µM	10.6 ± 0.04 µM	IC50 (human LOX-5): 24.6 ± 0.02 µM
Cc1ccc(-c2cc3c(ccc4c(=O)c(C=O)coc43)o2)cc1 [Compound 2h, 8-(4-Methyphenyl)-4-oxo-4H-furo[2,3-h]chromene-3-carbaldehyde]	0.8	20.9 ± 0.01 µM	25.9 ± 0.03 µM	19.8 ± 0.03 µM	11.6 ± 0.03 µM	9.2 ± 0.03 µM	IC50 (human LOX-5): 28.7 ± 0.03 µM
O=Cc1coc2c(ccc3oc(C4=CCCCC4)cc32)c1=O [Compound 2i, 8-(Cyclohex-1-en-1-yl)-4-oxo-4H-furo[2,3-h]chromene-3-carbaldehyde]	0.5	15.3 ± 0.03 µM	31.6 ± 0.02 µM	12.1 ± 0.01 µM	15.9 ± 0.02 µM	21.5 ± 0.02 µM	–
O=c1c(C=NNc2ccc(C(F)(F)F)cc2)coc2c1ccc1oc(-c3ccccc3)cc12 [Compound 3a]	0.8	15.4 ± 0.01 µM	18.7 ± 0.03 µM	29.7 ± 0.02 µM	15.3 ± 0.01 µM	16.3 ± 0.01 µM	–
O=c1c(C=NNc2ccc(C(F)(F)F)cc2)coc2c1ccc1oc(-c3cccc(Cl)c3)cc12 [Compound 3d]	0.8	24.3 ± 0.03 µM	30.1 ± 0.03 µM	30.2 ± 0.03 µM	32.5 ± 0.03 µM	11.8 ± 0.03 µM	–
Cc1ccc(-c2cc3c(ccc4c(=O)c(C=NNc5ccc(C(F)(F)F)cc5)coc43)o2)cc1 [Compound 3h]	0.6	9.1 ± 0.02 µM	14.2 µM	22.4 ± 0.01 µM	16.3 ± 0.03 µM	18.6 ± 0.03 µM	–
COc1cccc2c1C(=O)c1c(O)c3c(c(O)c1C2=O)C[C@@](O)(C(=O)CO)C[C@@H]3O[C@H]1C[C@H](N)[C@H](O)[C@H](C)O1 [doxorubicin hydrochloride, reference compound]	–	–	–	–	–	–	IC50 ([9]; Homo sapiens, MCF7, 24 h treatment): 1.59 ± 0.01 µM
